Reference: ChEMBL document CHEMBL1156560, “4-(1,1-Dioxo-1,4-dihydro-1lambda6-benzo[1,4]thiazin-3-yl)-5-hydroxy-2H-pyridazin-3-ones as potent inhibitors of HCV NS5B polymerase” (Bioorg Med Chem Lett, 2008)

What was measured:
[1] = Oral bioavailability in cynomolgus monkey at 1 mg/kg; format: ADME, organism-based, Macaca fascicularis; conditions: in vivo
[2] = Apparent permeability from apical to basolateral side in human Caco-2 cells at 10 uM; format: ADME, cell-based
[3] = Metabolic stability in monkey liver microsomes; format: ADME, Macaca mulatta, Microsome; conditions: rhesus monkey
Hepatitis C virus [4] = assay: Antiviral activity against HCV 1b BK delta21 in Huh7/C24 cells after 72 hrs by replicon assay; format: functional, organism-based, Hepacivirus hominis; conditions: genotype 1b BK, Huh7/C24, 72 h
Hepatitis C virus [5] = assay: Inhibition of HCV 1b BK delta21 NS5B delta21 polymerase; parameters: species or system Hepatitis C virus subtype 1b
[6] = Cytotoxicity against human Huh7/C24 cells after 72 hrs; format: cell-based, Huh-7
[7] = Metabolic stability in human liver microsomes assessed as half life; format: ADME, Microsome

| SMILES | bioavailability [1] [%] | Papp A→B at 10 µM [2] [×10⁻⁶ cm/s] | half-life [3] [min] | EC50 (Hepatitis C virus [4]) [nM] | IC50 (Hepatitis C virus [5]) [nM] | CC50 at 72 h [6] [nM] | half-life [7] [min] |
| --- | --- | --- | --- | --- | --- | --- | --- |
| CC(C)CCn1nc(-c2cccs2)c(O)c(C2=NS(=O)(=O)c3cc(N(C)S(C)(=O)=O)ccc3N2)c1=O | 12 | 0.2 | – | – | – | – | – |
| CC(C)CCn1nc(-c2cccs2)c(O)c(C2=Nc3ccc(NS(C)(=O)=O)cc3S(=O)(=O)N2)c1=O | – | 0.02 | – | – | – | – | – |
| Cc1ccc(-c2nn(Cc3ccccc3)c(=O)c(C3=Nc4ccccc4S(=O)(=O)N3)c2O)s1 | 33 | 1.3 | > 60 | – | – | – | – |
| CC(C)CCn1c(=O)c(C2=Nc3ccc(NS(C)(=O)=O)cc3S(=O)(=O)N2)c(O)c2cccn21 | 0 | – | – | 8.5 | < 10 | – | – |
| CS(=O)(=O)Nc1ccc2c(c1)S(=O)(=O)C=C(c1c(O)c(-c3cccs3)nn(Cc3ccccc3)c1=O)N2 | – | – | – | 36 | 18 | > 1000 | > 60 |
| CC(C)CCn1nc(-c2cccs2)c(O)c(C2=CS(=O)(=O)c3cc(NS(C)(=O)=O)ccc3N2)c1=O | 4 | 0.012 | 20 | 1.1 | < 10 | > 1000 | > 60 |
| CC(C)CCn1nc(-c2ccccc2)c(O)c(C2=CS(=O)(=O)c3cc(NS(C)(=O)=O)ccc3N2)c1=O | 1 | 0.019 | 34 | 190 | 250 | > 33000 | 36 |
| CC(C)CCn1nc(-c2cccs2)c(O)c(C2=CS(=O)(=O)c3cc(N(C)S(C)(=O)=O)ccc3N2)c1=O | – | – | – | – | 1600 | – | – |
| CCC(C)(C)CCn1nc(-c2cccs2)c(O)c(C2=CS(=O)(=O)c3cc(NS(C)(=O)=O)ccc3N2)c1=O | – | – | – | 2.7 | < 10 | > 1000 | 30 |
| CS(=O)(=O)Nc1ccc2c(c1)S(=O)(=O)C=C(c1c(O)c(-c3cccs3)nn(CC3CCCC3)c1=O)N2 | – | – | – | 15 | 39 | > 1000 | 43 |
| CS(=O)(=O)Nc1ccc2c(c1)S(=O)(=O)C=C(c1c(O)c(-c3cccs3)nn(CC3CC3)c1=O)N2 | – | – | – | 3.5 | 15 | > 1000 | > 60 |
| CC(C)(C)CCn1c(=O)c(C2=CS(=O)(=O)c3cc(NS(C)(=O)=O)ccc3N2)c(O)c2cccn21 | 1 | 0.3 | 4.7 | 1.5 | < 10 | > 1000 | 30 |
| Cc1ccc(-c2nn(Cc3ccccc3)c(=O)c(C3=CS(=O)(=O)c4ccccc4N3)c2O)s1 | 13 | 0.3 | 37 | – | 12000 | – | – |
| Cc1ccc(-c2nn(Cc3ccccc3)c(=O)c(C3=CS(=O)(=O)c4cc(N(C)S(C)(=O)=O)ccc4N3)c2O)s1 | – | – | – | – | 9000 | – | > 60 |
| Cc1ccc(-c2nn(Cc3ccccc3)c(=O)c(C3=CS(=O)(=O)c4cc(NS(C)(=O)=O)ccc4N3)c2O)s1 | – | – | – | – | 1600 | – | > 60 |
| CC(C)CCn1c(=O)c(C2=CS(=O)(=O)c3cc(NS(C)(=O)=O)ccc3N2)c(O)c2cccn21 | – | 0.027 | – | 13 | 27 | > 1000 | > 60 |
| CC(C)CCn1c(=O)c(C2=CS(=O)(=O)c3cc(N(C)S(C)(=O)=O)ccc3N2)c(O)c2cccn21 | 4 | 0.012 | 20 | 940 | 440 | > 33000 | > 60 |
